Experimental data published in publication PMC4521012, “Distortion of the Major Histocompatibility Complex Class I Binding Groove to Accommodate an Insulin-derived 10-Mer Peptide” (The Journal of Biological Chemistry, 2015).

Legend:
[1] = tested on: G9C8 T-cell clone (insulin-reactive CD8+ T-cells); experiment: T-cell functional assays (proliferation, MIP1β and IFNγ production); type: cell-based, NOD mouse; conditions: in all assays: [3H]thymidine proliferation, MIP1β and IFNγ ELISA; CD8+ T-cells with bone marrow-derived dendritic cells 10:1
Description: Splenic CD8^+ T-cells were purified using a Miltenyi MACS CD8^+ isolation kit (>90% purity) and cultured at 10:1 with bone marrow-derived dendritic cells with the LYLVCGERGF (G9GF), LYLVCGERG (G9G), or LYLVCGERV (G9V) peptide in RPMI medium supplemented with 5% FCS, 2 mM L-glutamine, 0.05 mM 2-mercaptoethanol, penicillin/streptomycin. Each sample was plated in duplicate. After 48 h of incubation, cells were pulsed with 0.5 μCi of [^3H]thymidine for 18 h, harvested, and counted to determine [^3H]thymidine incorporation.
Supernatants were removed from the proliferation assay cultures prior to the addition of [^3H]thymidine. MIP1β was measured by sandwich ELISA (R&D systems), whereas IFNγ was measured using a similar protocol (BD Biosciences) with the modification that the capture antibody was diluted in carbonate buffer and incubated at 4 °C overnight. Plates were blocked at 37 °C for 1 h, and the detection antibody was incubated for 1 h at room temperature.

[2] = tested on: G9C8 T-cell clone (insulin-reactive CD8+ T-cells); experiment: Staining of insulin-specific CD8 T-cells with H-2K^d·peptide tetramers; type: cell-based, NOD mouse; conditions: flow cytometry; for Tetramer+ (% of G9C8 clone stained by H-2K^d·peptide tetramer): splenocytes of G9Cα−/− NOD mice, 50 nM dasatinib preincubation, 0.5 μg tetramer, 15 min at 37 °C, gated on live CD8+ cells
H-2K^d = H-2K^d (Mus musculus, UniProt P01902); experiment: pMHC stability assay (thermal stability by CD spectroscopy); type: physicochemical, murine; conditions: CD spectroscopy at 218 nm, 2.5 μM protein in PBS, 4-90 °C in 0.5 °C intervals, two-state trimer-to-monomer fit
Chain of H-2K^d (P01902 whole entry, looked up): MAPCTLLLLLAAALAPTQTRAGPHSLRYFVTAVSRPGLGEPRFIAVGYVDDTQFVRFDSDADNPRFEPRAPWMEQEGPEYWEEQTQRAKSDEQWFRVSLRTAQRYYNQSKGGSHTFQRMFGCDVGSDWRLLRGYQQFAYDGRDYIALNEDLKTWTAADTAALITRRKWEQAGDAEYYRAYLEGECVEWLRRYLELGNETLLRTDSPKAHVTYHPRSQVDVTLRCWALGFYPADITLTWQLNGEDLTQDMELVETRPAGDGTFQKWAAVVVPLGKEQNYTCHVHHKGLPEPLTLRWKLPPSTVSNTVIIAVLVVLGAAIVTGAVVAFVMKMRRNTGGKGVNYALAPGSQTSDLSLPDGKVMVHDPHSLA
Description: Thermal stability of H-2K^d complexes was assessed by circular dichroism (CD) spectroscopy, monitoring the change in ellipticities at 218 nm. Data were collected on an Aviv Model 215 spectropolarimeter (Aviv Biomedical Inc., Lakewood, NJ) using a 0.1-cm quartz cell. Proteins were dissolved in PBS at concentrations of 2.5 μM. Melting curves were recorded in 0.5 °C intervals from 4 °C up to a maximum temperature of 90 °C when protein aggregation was observed. Melting curves were analyzed assuming a two-state trimer-to-monomer transition from the native (N) to unfolded (U) conformation N3 ↔ 3U with an equilibrium constant K = [U]^3/[N3] = F/(3c^2(1 − F)^3), where F and c are the degree of folding and protein concentration, respectively. Data were fitted as described ([38]). Fitted parameters were the melting temperature (Tm), van't Hoff's enthalpy (ΔHvH), and the slope and intercept of the native baseline. Because all protein complexes aggregated upon unfolding, the ellipticity of the unfolded state was set as a constant of −4,500 degrees cm^2 dmol^−1 ([39], [40]).

G9C8 TCR = experiment: Surface plasmon resonance analysis of G9C8 TCR binding to peptide-H-2K^d; parameters: species or system NOD mouse; conditions: SPR, 25 °C
Description: Binding analysis was performed using a BIAcore 3000^TM equipped with a CM5 sensor chip as described previously ([41]). Binding analysis was performed four times in independent experiments using pMHC monomers generated in house and from the National Institutes of Health tetramer facility. Approximately 200–500 RU of peptide-H-2K^d (in complex with G9GF, G9G, or G9V) was attached to the CM5 sensor chip at a slow flow rate of 10 μl/min to ensure uniform distribution on the chip surface. Combined with the small amount of peptide-H-2K^d bound to the chip surface, this reduced the likelihood of off-rate-limiting mass transfer effects. The G9C8 TCR was purified and concentrated to ∼140 μM on the same day of surface plasmon resonance analysis to reduce the likelihood of TCR aggregation affecting the results. For equilibrium analysis, eight serial dilutions were prepared in triplicate for each sample and injected over the relevant sensor chips at 25 °C. TCR was injected over the chip surface using kinetic injections at a flow rate of 45 μl/min using H-2K^d·AYAAAAAAV or HLA-A*0201·ALWGPDPAAA in different experiments as negative controls.

| Sequence | Sensitivity of the G9C8 T-cell clone to G9G compared with G9GF [1] | Tetramer+ (% of G9C8 clone stained by H-2K^d·peptide tetramer) [2] | Sensitivity of the G9C8 T-cell clone to G9V compared with G9G [1] | Melting temperature of the H-2K^d complex, difference to G9G and G9GF (higher) (H-2K^d) | Mean fluorescence intensity of tetramer staining, compared with H-2K^d·G9G tetramer (in words) ([2]; different concentrations of each tetramer) | G9C8 TCR affinity for the altered ligand compared with the native ligands (higher) (G9C8 TCR) |
| --- | --- | --- | --- | --- | --- | --- |
| LYLVCGERG [G9G, native insulin B chain 9-mer peptide, tested as complex or tetramer with H-2K^d] | about 5 times | 85.7% |  |  |  |  |
| LYLVCGERV [G9V] |  | 87.9% | at least 5 times | over 20 °C | substantially higher | > 10 times |
